# Laboratory results reported in patent US20230241205A1, “SARS-COV-2 IMMU[…] AND USES THEREOF” (TScan Therapeutics, Inc., priority 2020, published 2023).
# How the values were obtained:
# Assay type in all cases: cell-based, human
# [1] = system: memory CD8+ T cells of convalescent COVID-19 patients; target cells expressing only HLA-A*02:01; conditions: of 9 HLA-A*02:01 patients
# OC43 and HKU1 = assay: T-Scan screen, reactivity to corresponding epitopes in OC43 and HKU1 ORFeomes; conditions: COVID-19 patient memory CD8+ T cells
# [2] = system: memory CD8+ T cells of convalescent COVID-19 patients; target cells expressing only HLA-A*03:01; conditions: share of screened convalescent patients whose memory CD8+ T cells recognised the epitope; allele A*03
Substance,patients in whom epitope or region was identified / recognized [1],reactivity to corresponding epitopes in OC43 and HKU1 (OC43 and HKU1),other results
ORF1ab aa 3881-3900: 20-aa segment of SARS-CoV-2 ORF1ab recognized in the T-Scan screen,7 of 9,–,–
S aa 261-280: 20-aa segment of SARS-CoV-2 S protein recognized in the T-Scan screen,7 of 9,–,–
KLWAQCVQL,–,do not recognize them,–
KCYGVSPTKY,–,–,% of Pts (Screen) [2]: 100%
SPRWYFYYL,–,all four of the patients,–
